Activity calls are given as the source filed them. No cut-off for these calls is given here.
Assays:
Influenza A virus [1] = assay: Antiviral activity against influenza A virus infected in human A549 cells assessed as inhibition of TNFalpha expression by qRT-PCR analysis; type: functional, organism-based
Influenza A virus [2] = assay: Inhibition of influenza A virus infection induced apoptosis in MDCK cells infected with influenza virus assessed as late apoptotic cells at 100 uM incubated for 36 hrs by AnnexinV-FITC/PI staining based flow cytometry (reference value: 13.2%); type: functional; parameters: scale not given: the % may be the effect or the level left
[3] = Toxicity in healthy BALB/c mouse assessed as pathological change in kidney at 25 to 100 mg/kg administered through gavage for 6 days; type: organism-based; details: in vivo, po, 144 h, dose 25-100 mg/kg, time 6 day
Influenza A virus [4] = assay: In vivo antiviral activity against influenza A virus infected in BALB/c mouse assessed as reduction in weight loss at 25 to 100 mg/kg; type: functional, organism-based; details: dose 25-100 mg/kg
Influenza A virus [5] = assay: Inhibition of influenza A virus infection induced apoptosis in MDCK cells assessed as viable cells at 100 uM incubated for 36 hrs by AnnexinV-FITC/PI staining based flow cytometry (reference value: 97.6%); type: functional
Influenza A virus [6] = assay: Inhibition of influenza A virus infection induced apoptosis in MDCK cells infected with influenza virus assessed as decrease in cleaved caspase 9 incubated for 36 hrs by Western blot analysis; type: functional, organism-based
Influenza A virus [7] = assay: Antiviral activity against influenza A virus infected in A549 cells assessed as decrease in IAV-NP mRNA level measured after 1 to 3 days of viral infection; type: functional, organism-based; details: time 1-3 day
Influenza A virus [8] = assay: Antiviral activity against influenza A virus infected in A549 cells assessed as decrease in IAV-M2 expression pretreated for 48 hrs followed by infected with virus by Western blotting analysis; type: functional, organism-based; details: dose 25-100 µM
Influenza A virus [9] = assay: Inhibition of influenza A virus infection induced apoptosis in MDCK cells infected with influenza virus assessed as early apoptotic cells at 50 uM incubated for 36 hrs by AnnexinV-FITC/PI staining based flow cytometry (reference value: 18.2%); type: functional; parameters: scale not given: the % may be the effect or the level left
Influenza A virus [10] = assay: Inhibition of neuraminidase in Influenza A virus
[11] = Cytotoxicity against human A549 cells assessed as toxicity after 72 hrs of incubation by MTT assay; type: cell-based
Influenza A virus [12] = assay: In vivo antiviral activity against influenza A virus infected in BALB/c mouse assessed as reduction in IAV-NP mRNA level in lung at 25 to 100 mg/kg measured after 6 dpi; type: functional, organism-based; details: dose 25-100 mg/kg
Influenza A virus [13] = assay: Antiviral activity against influenza A virus H1NI (A/Weiss/43) virus infected in dog MDCK cells assessed as viral inhibition treated after 4 hrs of viral infection measured at 72 hrs incubation by MTT assay; type: functional
[14] = Toxicity in healthy BALB/c mouse assessed as pathological change in lungs at 25 to 100 mg/kg administered through gavage for 6 days; type: organism-based; details: in vivo, po, 144 h, dose 25-100 mg/kg, time 6 day
Influenza A virus [15] = assay: In vivo antiviral activity against influenza A virus infected in BALB/c mouse assessed as decrease in symptoms at 25 to 100 mg/kg; type: functional, organism-based; details: dose 25-100 mg/kg
Influenza A virus [16] = assay: Inhibition of influenza A virus infection induced apoptosis in MDCK cells infected with influenza virus assessed as necrotic cells at 25 uM incubated for 36 hrs by AnnexinV-FITC/PI staining based flow cytometry (reference value: 1.79%); type: functional; parameters: scale not given: the % may be the effect or the level left
Influenza A virus [17] = assay: Antiviral activity against influenza A virus infected in human A549 cells assessed as inhibition of NF-kappaB protein expression at 25 to 100 uM by Western blot analysis; type: functional, organism-based; details: dose 25-100 µM
Influenza A virus [18] = assay: Inhibition of Hemagglutinin in Influenza A virus
Influenza A virus [19] = assay: In vivo antiviral activity against influenza A virus infected in BALB/c mouse assessed as reduction in ASC mRNA level in lung at 25 to 100 mg/kg measured after 6 dpi; type: functional, organism-based; details: dose 25-100 mg/kg
Influenza A virus [20] = assay: Antiviral activity against influenza A virus infected in A549 cells assessed as decrease in IAV-NP expression pretreated for 48 hrs followed by infected with virus by Western blotting analysis; type: functional, organism-based; details: dose 25-100 µM
Influenza A virus [21] = assay: Antiviral activity against influenza A virus infected in A549 cells assessed as decrease in IAV-NP expression at 25 to 100 uM cells pretreated for 48 hrs followed by infected with virus by green fluorescent labelling based confocal microscopy; type: functional, organism-based; details: dose 25-100 µM
[22] = Selectivity index, ratio of CC50 for dog MDCK cells to EC50 for antiviral activity against Influenza A virus […] H3N2 (A/California/2014) infected in MDCK cells; type: toxicity, cell-based; details: read-out: Selectivity Index
Influenza A virus [23] = assay: Inhibition of influenza A virus infection induced apoptosis in MDCK cells infected with influenza virus assessed as early apoptotic cells at 25 uM incubated for 36 hrs by AnnexinV-FITC/PI staining based flow cytometry (reference value: 18.2%); type: functional; parameters: scale not given: the % may be the effect or the level left
Influenza A virus [24] = assay: Anti-influenza activity against influenza A virus H1NI (A/Virginia/ATCC2/2009) infected in dog MDCK cells incubated for 72 hrs by MTT assay; type: functional, organism-based; details: Influenza A virus, H1NI (A/Virginia/ATCC2/2009), MDCK, 72 h
Influenza A virus [25] = assay: In vivo antiviral activity against influenza A virus infected in BALB/c mouse assessed as reduction in Caspase-1 mRNA level in lung at 25 to 100 mg/kg measured after 6 dpi; type: functional, organism-based; details: dose 25-100 mg/kg
Influenza A virus [26] = assay: In vivo antiviral activity against influenza A virus infected in BALB/c mouse assessed as reduction in OAS1 mRNA level in lung at 25 to 100 mg/kg measured after 6 dpi; type: functional, organism-based; details: dose 25-100 mg/kg
Influenza A virus [27] = assay: In vivo antiviral activity against influenza A virus infected in BALB/c mouse assessed as reduction in RIG-I mRNA level in lung at 25 to 100 mg/kg measured after 6 dpi; type: functional, organism-based; details: dose 25-100 mg/kg
Influenza A virus [28] = assay: Anti-influenza activity against influenza A virus H3N2 (A/California/2014) infected in dog MDCK cells incubated for 72 hrs by MTT assay; type: functional, organism-based
Influenza A virus [29] = assay: Antiviral activity against influenza A virus infected in human A549 cells assessed as inhibition of RIG-1 protein expression at 25 to 100 uM by Western blot analysis; type: functional, organism-based; details: dose 25-100 µM
Influenza A virus [30] = assay: Inhibition of influenza A virus infection induced apoptosis in MDCK cells infected with influenza virus assessed as viable cells at 50 uM incubated for 36 hrs by AnnexinV-FITC/PI staining based flow cytometry (reference value: 66.9%); type: functional
Influenza A virus [31] = assay: Antiviral activity against influenza A virus infected in human A549 cells assessed as inhibition of IL-13 expression by qRT-PCR analysis; type: functional, organism-based
Influenza A virus [32] = assay: Inhibition of influenza A virus infection induced apoptosis in MDCK cells infected with influenza virus assessed as decrease in Bax incubated for 36 hrs by Western blot analysis; type: functional, organism-based
Influenza A virus [33] = assay: In vivo antiviral activity against influenza A virus infected in BALB/c mouse assessed as reduction in lung lesions at 25 to 100 mg/kg; type: functional, organism-based; details: dose 25-100 mg/kg
Influenza A virus [34] = assay: In vivo antiviral activity against influenza A virus infected in BALB/c mouse assessed as reduction in NLRP-3 mRNA level in lung at 25 to 100 mg/kg measured after 6 dpi; type: functional, organism-based; details: dose 25-100 mg/kg
[35] = Toxicity in healthy BALB/c mouse assessed as pathological change in heart at 25 to 100 mg/kg administered through gavage for 6 days; type: organism-based; details: in vivo, po, 144 h, dose 25-100 mg/kg, time 6 day
Influenza A virus [36] = assay: Antiviral activity against influenza A virus infected in human A549 cells assessed as inhibition of TLR3 expression by qRT-PCR analysis; type: functional, organism-based

SMILES: COc1ccc2c(c1)c(-c1ccccc1)c(NS(C)(=O)=O)n2S(=O)(=O)c1ccc(C)cc1
- Activity (Influenza A virus [1]): Active
- Activity (Influenza A virus [2]): 1.62%
- Activity [3]: Non-toxic
- Activity (Influenza A virus [4]): inactive
- Activity (Influenza A virus [5]): 96.7%
- Activity (Influenza A virus [6]): Dose-dependent-effect
- Activity (Influenza A virus [7]): Active
- Activity (Influenza A virus [8]): Dose-dependent-effect
- Activity (Influenza A virus [9]): 9.21%
- inhibition (Influenza A virus [10]): inactive
- CC50 at 72 h [11]: 632 µM
- Activity (Influenza A virus [12]): Active
- inhibition (INH) (Influenza A virus [13]): 85.3%
- Activity [14]: Non-toxic
- Activity (Influenza A virus [15]): Active; Alleviate Following Symptoms - Symptoms Of Severe Malaise, Respiratory Distress, Asthma, Messy Coat, Hunched Back, And Loss Of Appetite To Certain Extent
- Activity (Influenza A virus [16]): 1.23%
- Activity (Influenza A virus [17]): Active
- inhibition (Influenza A virus [18]): inactive
- Activity (Influenza A virus [19]): Active
- Activity (Influenza A virus [20]): Dose-dependent-effect
- Activity (Influenza A virus [21]): Active
- selectivity ratio [22]: 36.5
- Activity (Influenza A virus [23]): 17.6%
- EC50 (Influenza A virus [24]): 12.9 µM
- Activity (Influenza A virus [25]): Active
- Activity (Influenza A virus [26]): Active
- Activity (Influenza A virus [27]): Active
- EC50 (Influenza A virus [28]): 18.3 µM
- Activity (Influenza A virus [29]): Active
- Activity (Influenza A virus [30]): 85.5%
- Activity (Influenza A virus [31]): Active
- Activity (Influenza A virus [32]): Active
- Activity (Influenza A virus [33]): Active; Compound Alleviate Red Liver-Like Degeneration Stage, With Edema And Expansion, And Dark Red Lesions And Lung Consolidation - Only Mild Edema Observed
- Activity (Influenza A virus [34]): Active
- Activity [35]: Non-toxic
- Activity (Influenza A virus [36]): Active

— ChEMBL document CHEMBL6087420, “Synthesis and pharmacodynamic evaluation of 2-aminoindole derivatives against influenza A virus in vitro/vivo” (Eur J Med Chem, 2025)
